Laboratory results as given in patent publication US20130011528A1 (priority 2010, published 2013).

How the values were obtained:
[1] = target: glucose oxidase (GOD, EC 1.1.3.4.) (Aspergillus niger, UniProt P13006); test: GOD biosensor: oxygen decrease during glucose oxidation in hydrolysed milk with added antibiotic; format: biochemical; settings: benzylpenicillin concentration 1000 ppb in milk, glucose and galactose 1.4 mM, 38° C.
[2] = target: galactose oxidase (GAO, EC 1.1.3.9) (Gibberella zeae, UniProt P0CS93); format: biochemical; settings: GAO biosensor, benzylpenicillin concentration 1000 ppb in milk, glucose and galactose 1.4 mM, 38° C.
Sequence of galactose oxidase (GAO, EC 1.1.3.9) (P0CS93 42-680 limits assumed): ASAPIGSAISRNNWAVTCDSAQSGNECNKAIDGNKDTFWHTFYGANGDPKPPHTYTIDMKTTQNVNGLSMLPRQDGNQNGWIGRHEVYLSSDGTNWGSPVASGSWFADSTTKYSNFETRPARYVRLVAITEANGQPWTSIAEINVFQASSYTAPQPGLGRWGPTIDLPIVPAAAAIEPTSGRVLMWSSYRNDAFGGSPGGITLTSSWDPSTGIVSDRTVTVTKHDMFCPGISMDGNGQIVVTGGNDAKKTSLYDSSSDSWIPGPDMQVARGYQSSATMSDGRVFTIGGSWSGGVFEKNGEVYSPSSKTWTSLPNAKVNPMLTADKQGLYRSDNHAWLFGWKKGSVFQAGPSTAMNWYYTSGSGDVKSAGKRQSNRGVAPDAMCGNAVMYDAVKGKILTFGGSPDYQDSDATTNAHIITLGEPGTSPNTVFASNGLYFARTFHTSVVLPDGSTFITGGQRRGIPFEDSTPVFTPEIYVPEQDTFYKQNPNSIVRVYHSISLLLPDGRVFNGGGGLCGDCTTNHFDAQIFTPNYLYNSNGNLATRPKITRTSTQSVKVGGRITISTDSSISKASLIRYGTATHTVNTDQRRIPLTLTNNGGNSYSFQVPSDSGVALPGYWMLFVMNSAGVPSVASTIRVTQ

Sequence of glucose oxidase (GOD, EC 1.1.3.4.) (P13006 17-605, species assumed): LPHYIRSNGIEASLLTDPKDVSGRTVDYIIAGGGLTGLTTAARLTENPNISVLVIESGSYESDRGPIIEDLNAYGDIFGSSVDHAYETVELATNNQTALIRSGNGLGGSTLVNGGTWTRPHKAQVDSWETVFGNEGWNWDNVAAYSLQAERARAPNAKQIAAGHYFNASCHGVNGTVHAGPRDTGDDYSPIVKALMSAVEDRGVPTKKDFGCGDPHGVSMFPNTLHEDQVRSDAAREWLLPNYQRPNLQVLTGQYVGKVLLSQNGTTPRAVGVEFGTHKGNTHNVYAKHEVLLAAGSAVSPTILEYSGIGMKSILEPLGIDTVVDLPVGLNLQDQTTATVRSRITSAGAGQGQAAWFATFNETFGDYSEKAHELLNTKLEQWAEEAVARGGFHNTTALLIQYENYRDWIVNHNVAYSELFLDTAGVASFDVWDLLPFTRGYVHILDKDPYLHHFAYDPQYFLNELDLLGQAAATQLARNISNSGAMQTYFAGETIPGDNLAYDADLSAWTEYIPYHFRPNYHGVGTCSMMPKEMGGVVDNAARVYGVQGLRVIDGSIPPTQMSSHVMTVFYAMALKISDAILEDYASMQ

## CC1(C)S[C@@H]2[C@H](NC(=O)Cc3ccccc3)C(=O)N2[C@H]1C(=O)O [benzylpenicillin]
[1]; antibiotics-free milk A=0.159
  steady state parameter A: 0.141
[1]; antibiotics-free milk B=222.2
  kinetic parameter B: 146.0 s⁻¹
[2]; antibiotics-free milk A=0.640
  steady state parameter A: 0.435
[2]; antibiotics-free milk B=53.0
  kinetic parameter B: 97.8 s⁻¹
